“Also recorded” adds a separate entry of the source.
Legend:
[1] = Fluorescence change of the probe on reaction with hydrogen sulfide in buffer; conditions: Compound 10 μM
Method: A mechanism of a fluorescence turn-on phenomenon according to a reaction between Compound 2 and hydrogen sulfide is shown in FIG. 1a, an α-β unsaturated carbonyl group of Compound 2 reacted with hydrogen sulfide to induce a ring-shape in a chemical reaction.
Therefore, to observe the fluorescence change of Compound 2 due to hydrogen sulfide, a fluorescence graph of Compound 2 was measured in a buffer (pH 7.4, 10 mM HEPES buffer). For fluorescence spectra analysis, a photon technical international fluorescence system manufactured by PTI was used, as a cell providing Compound 2 to each instrument, a standard quartz cell having a thickness of 1 cm was used. First, Compound 2 (10 μM) was treated with hydrogen sulfide at a concentration of 0 to 50 μM, and after 5 minutes, a fluorescence graph was checked.
To observe the fluorescence change of Compound 2 over time due to hydrogen sulfide, Compound 2 (10 μM) was treated with 100 μM of hydrogen sulfide (using the same buffer as used in Example 1), and a graph of fluorescence over time was analyzed. When an excitation wavelength was 375 nm, a fluorescence emission wavelength was detected to be 510 nm.
To observe the hydrogen sulfide sensitivity of Compound 2 based on fluorescence change, an amount of Na2S (the same as H2S) in Compound 2 (10 μM) was reduced. A buffer used in the experiment was the same as used in Example 1, 50 nM of Na2S was added, an excitation wavelength was 375 nm, and a fluorescence emission wavelength was detected to be 510 nm.
To observe fluorescence changes of Compound 2 due to hydrogen sulfide under various acidity (pH) conditions, the fluorescence changes were examined when Compound 2 (10 μM) bound to H2S under various acidity conditions (pH 5˜9). In other words, 100 μM of H2S reacted to Compound 2 at pH 5, 6, 7, 8, or 9, and then 5 minutes later, a fluorescence intensity was measured. Here, an excitation wavelength was 375 nm, and a fluorescence emission wavelength was detected to be 510 nm.

HeLa cells [2] = test: Cell imaging using one-photon and two-photon fluorescence microscopes; type: cell-based, human; conditions: probe 10 μM
Method: To observe a fluorescence change according to the treatment with Compound 2 through cell imaging using one-photon and two-photon fluorescence microscopes, Compound 2 (10 μM) was treated with human cervical carcinoma cells (HeLa cells). The HeLa cells were cultured in a Dulbecco's modified eagles medium (DMEM, Hyclone) containing 10% fetal bovine serum (Hyclone) and penicillin-streptomycin (Hyclone) with 5% carbon dioxide at an ambient temperature of 37° C. to a cell density of about 20,000 cells/cm^2, and used in the experiment. The used one-photon fluorescence microscope is an LSM710 confocal microscope manufactured by Carl Ziess, and the two-photon fluorescence microscope is a Chameleon Ultra model having a Ti-sapphire laser, which is manufactured by Coherent. A lens used in the two-photon fluorescence microscope is an XLUMPLFNM, NA 1.0 model manufactured by Olympus, and a wavelength and laser power of the two-photon fluorescence microscope are 880 nm and 15 mW, respectively. […]

[3] = Fluorescence change under hydrogen sulfide and biological sulfide conditions (selectivity); conditions: Compound 10 μM; Na2S 100 μM, GSH 10 mM, Cys 200 μM, Hcy 50 μM; pH 7.4 HEPES buffer; excitation 375 nm, emission 510 nm
Method: To confirm the hydrogen sulfide selectivity of Compound 2 under hydrogen sulfide and biological sulfide conditions, the fluorescence change of Compound 2 (10 μM) was observed under biological sulfide conditions (Na2S (100 μM), the same material as H2S), glutathione (GSH, 10 mM), cysteine (Cys, 200 μM), and homocysteine (Hcy, 50 μM) (using the same buffer as used in Example 1)). Here, an excitation wavelength was 375 nm, and a fluorescence emission wavelength was detected to be 510 nm.
That is, the fluorescence changes of Compounds 2, 3 and 4 (10 μM) were observed under the biological sulfide conditions (Na2S (100 μM, the same as H2S), glutathione (GSH, 10 mM), cysteine (Cys, 200 μM), homocysteine (Hcy, 50 μM)), a buffer used in the experiment was the same as used in Example 1, an excitation wavelength was 375 nm, and a fluorescence emission wavelength was detected to be 510 nm.

[4] = Fluorescence change on reaction with various types of biological substances; conditions: Compound 10 μM; amino acids, lipoic acid, anions, H2O2 each 100 μM; about 30 minutes; pH 7.4 HEPES buffer
Method: To observe fluorescence changes according to reactions between various types of biological substances and Compound 2, Compound 2 (10 μM) was reacted with a biologically-active substance (an amino acid (Ala, Glu, Lys, or Met), lipoic acid, an anion (NO^2−, SO4^2−, S2O3^2−, SCN^−, or I^−), and active oxygen (H2O2). A buffer used in the experiment was the same as used in Example 1, and the concentration of each biologically-active substance was 100 μM. Each biologically-active substance was added, and after about 30 minutes, an excitation wavelength was 375 nm, and a fluorescence emission wavelength was detected to be 510 nm.

[5] = test system: hydrogen sulfide (H2S) in each organ (the brain, kidney, liver, spleen or lung) of a mouse; test: Mouse organ tissue imaging using two-photon fluorescence microscope; type: in vivo
Method: Tissue imaging per each organ of a Compound 2 treated mouse was performed using a two-photon fluorescence microscope. That is, the distribution of hydrogen sulfide (H2S) in each organ (the brain, kidney, liver, spleen or lung) of a mouse was confirmed using Compound 2. To this end, a set (1′) was prepared by injecting Compound 2 into the abdominal cavity of a live mouse and extracting an organ, and a set (2′) was prepared by extracting each organ of a mouse and immersing the organ in a solution of Compound 2. The mouse used in the experiment was a C57BL6 type (SAMTAKO Corp.), which is five weeks old. More particularly, for the set (1′), 20 μL of a 10 mM solution of Compound 2, which had been taken and diluted in 280 μL of a PBS (100 mM, pH 7.4) buffer, was injected into the abdominal cavity of a mouse twice a day for a total of 5 days, and then each organ was extracted. The extracted organ was frozen in dry ice for 5 minutes, crushed into smaller pieces with a hammer, and cut to a thickness of 16 μm using a section machine (Cryostat machine, Leica, CM3000 model). […] Subsequently, the resultant sample was washed three times with a PBS buffer, covered with a mount solution (Gel Mount, BIOMEDA), and then imaged using a two-photon fluorescence microscope, which is the same as used in Example 7. However, an excitation wavelength and laser power of the two-photon fluorescence microscope were 880 nm and 40 mW, respectively. Also, for the set (2′), first, each organ of a mouse was extracted and immersed in a solution (10 μM) of Compound 2 for 10 minutes, and then a sample prepared as described above was imaged by the same method used for the set (1′).

HeLa cells [6] = test: Cytotoxicity experiment by MTT method; type: cell-based, human
Method: To confirm the cytotoxicity of Compound 2 according to the present invention, a cytotoxicity experiment in HeLa cells was performed by an MTT method. That is, the Hela cells prepared by the same method as used in Example 7 were treated with Compound 2 at each concentration (0˜100 μM). In addition, to confirm the cytotoxicity, 25 μL of 3-(4,5-dimethldiazol-2-yl)-2, 5-diphenyltetrazolium bromide (MTT) having a concentration of 5 mg/mL was added. The cells were cultured at 37° C. for about 2 hours, treated with 100 μL of a solubilizing solution (50% dimethylformamide, 20% SDS, pH 7.4), and cultured at 37° C. for 24 hours, and then the absorbance was measured at 570 nm.

[7] = 100 μM hydrogen sulfide, pH 7.4 10 mM HEPES buffer, excitation 375 nm, emission 510 nm

Row | Structure (SMILES) | signal to noise ratio of fluorescence turn-on ([1]; 50 nM Na2S, about 5 minutes after addition, pH 7.4 HEPES buffer) | fluorescence change due to hydrogen sulfide under various acidity (pH) conditions ([1]; 100 μM H2S, pH 5, 6, 7, 8 or 9, 5 minutes) | time to approach the maximum fluorescence level [1, 7] [min] | time to saturation of fluorescence emission [1, 7] | fluorescence change with increasing concentration of hydrogen sulfide ([1]; hydrogen sulfide 0 to 50 μM, after 5 minutes, pH 7.4 10 mM HEPES buffer, excitation 375 nm, emission 510 nm) | low concentration of Na2S (H2S) at which fluorescence can be observed (sensitivity) ([1]; pH 7.4 HEPES buffer, excitation 375 nm, emission 510 nm) [nM] | permeation into cells (HeLa cells [2]) | fluorescence change in cells treated only with the probe (HeLa cells [2]; cultured 30 minutes, set (2)) | selectivity to hydrogen sulfide under biological sulfide conditions [3] | selective fluorescence turn-on versus various biologically-active substances [4] | two-photon fluorescence signal in organs after abdominal injection ([5]; set (1′): C57BL6 mouse, injected into the abdominal cavity twice a day for 5 days, organs extracted) | permeation into organs after abdominal injection ([5]; set (1′): living C57BL6 mouse, abdominal injection) | two-photon fluorescence change in extracted organs immersed in probe solution ([5]; set (2′): extracted mouse organs immersed in 10 μM solution for 10 minutes) | cytotoxicity (HeLa cells [6]; 0˜100 μM) | cell viability (HeLa cells [6]; concentrations until 100 μM) [%]
1 | COc1cc(C=O)c(/C=C/C(=O)c2ccc3cc(NCCO)ccc3c2)c(OC)c1 [Compound 2, (E)-2-(3-(6-(2-hydroxyethylamino)naphthalene-2-yl)-3-oxoprop-1-enyl)-3,5-dimethoxybenzaldehyde] | ≥ 3 | the sharpest increase in fluorescence was shown at neutral pH | ≤ 5 | about 10 minutes | fluorescence intensity was increased | 50 | easily permeates into cells | showed an increase in fluorescence | sufficient fluorescence turn-on phenomenon only in a reaction with Na2S; also recorded: high selectivity to hydrogen sulfide | only reacts with hydrogen sulfide (H2S) | signals are increased in the brain, kidney, liver, spleen and lung | permeated throughout the organ, particularly, into the brain | strong fluorescence changes are shown in the brain, liver and lung | not toxic to the cells | ≥ 95
2 | COc1cccc(C=O)c1/C=C/C(=O)c1ccc2cc(NCCO)ccc2c1 [Compound 3, (E)-2-(3-(6-(2-hydroxyethylamino)naphthalene-2-yl)-3-oxoprop-1-enyl)-3-methoxybenzaldehyde] |  |  |  |  |  |  |  |  | relatively lower selectivity to hydrogen sulfide than Compound 2 |  |  |  |  |  | 
3 | O=Cc1ccccc1/C=C/C(=O)c1ccc2cc(NCCO)ccc2c1 [Compound 4, (E)-2-(3-(6-(2-hydroxyethylamino)naphthalene-2-yl)-3-oxoprop-1-enyl)benzaldehyde] |  |  |  |  |  |  |  |  | did not have selectivity to hydrogen sulfide |  |  |  |  |  | 

— patent publication US20160274123A1, “One-Photon and/or Two-Photon Fluorescent Probe for Sensing Hydrogen Sulfide, Imaging Method of Hydrogen Sulfide Using Same, and Manufacturing Method Thereof” (POSTECH ACADEMY-INDUSTRY FOUNDATION, priority 2013, published 2016)
